Assay results reported in ChEMBL document CHEMBL4507264, “Data for DCP probe BAY-7598” (2021).

Columns and labels:
[1] = tested on: Tyrosine-protein kinase ABL1 (Homo sapiens), P00519 [T315I]; settings: Compound concentration 1000.0 nM
[2] = target: Peripheral plasma membrane protein CASK (Homo sapiens) (UniProt O14936); settings: Compound concentration 1000.0 nM
[3] = target: Tyrosine-protein kinase ITK/TSK (Homo sapiens) (UniProt Q08881); settings: Compound concentration 1000.0 nM
[4] = target: Serine/threonine-protein kinase Nek9 (Homo sapiens) (UniProt Q8TD19); settings: Compound concentration 1000.0 nM
[5] = target: cAMP-dependent protein kinase catalytic subunit beta (Homo sapiens) (UniProt P22694); settings: Compound concentration 1000.0 nM
[6] = target: Tyrosine-protein kinase FRK (Homo sapiens) (UniProt P42685); settings: Compound concentration 1000.0 nM
Sequence of Tyrosine-protein kinase FRK (Homo sapiens) (P42685 whole entry): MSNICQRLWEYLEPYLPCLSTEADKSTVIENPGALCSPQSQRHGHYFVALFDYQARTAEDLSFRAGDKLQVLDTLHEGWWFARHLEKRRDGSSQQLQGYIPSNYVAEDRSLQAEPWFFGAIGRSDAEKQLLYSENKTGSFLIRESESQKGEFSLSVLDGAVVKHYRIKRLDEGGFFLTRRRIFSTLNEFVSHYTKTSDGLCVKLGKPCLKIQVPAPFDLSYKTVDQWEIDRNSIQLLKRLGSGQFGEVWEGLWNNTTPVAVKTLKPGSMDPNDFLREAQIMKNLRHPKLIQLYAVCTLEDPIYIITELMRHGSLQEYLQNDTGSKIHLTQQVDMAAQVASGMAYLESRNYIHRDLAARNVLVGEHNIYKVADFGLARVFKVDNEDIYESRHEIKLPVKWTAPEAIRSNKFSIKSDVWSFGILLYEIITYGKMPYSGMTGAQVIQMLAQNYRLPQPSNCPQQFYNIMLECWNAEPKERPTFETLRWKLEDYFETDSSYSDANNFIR

[7] = target: 5-hydroxytryptamine receptor 2A (Homo sapiens) (UniProt P28223); settings: Compound concentration 10.0 uM
[8] = target: Cyclin-dependent kinase 13 (Homo sapiens) (UniProt Q14004); settings: Compound concentration 1000.0 nM
[9] = target: Serine/threonine-protein kinase Nek11 (Homo sapiens) (UniProt Q8NG66); settings: Compound concentration 1000.0 nM
[10] = target: Atypical kinase COQ8A, mitochondrial (Homo sapiens) (UniProt Q8NI60); settings: Compound concentration 1000.0 nM
[11] = target: Serine/threonine-protein kinase MARK2 (Homo sapiens) (UniProt Q7KZI7); settings: Compound concentration 1000.0 nM
[12] = target: T1, 5-hydroxytryptamine receptor 1A (Homo sapiens) (UniProt P08908); settings: Compound concentration 10.0 uM
T1 sequence (whole entry): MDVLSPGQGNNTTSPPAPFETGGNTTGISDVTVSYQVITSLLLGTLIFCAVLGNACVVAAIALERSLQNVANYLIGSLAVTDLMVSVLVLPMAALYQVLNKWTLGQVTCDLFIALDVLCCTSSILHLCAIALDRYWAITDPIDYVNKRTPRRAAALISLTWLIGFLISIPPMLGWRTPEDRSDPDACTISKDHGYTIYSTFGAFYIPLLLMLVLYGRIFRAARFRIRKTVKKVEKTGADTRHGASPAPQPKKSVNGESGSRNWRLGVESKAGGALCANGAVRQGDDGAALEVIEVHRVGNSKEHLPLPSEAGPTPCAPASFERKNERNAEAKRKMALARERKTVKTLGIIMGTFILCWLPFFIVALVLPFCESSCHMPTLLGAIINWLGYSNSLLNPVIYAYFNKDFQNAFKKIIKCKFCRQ

[13] = target: Mitogen-activated protein kinase 11 (Homo sapiens) (UniProt Q15759); settings: Compound concentration 1000.0 nM
[14] = target: Ephrin type-B receptor 2 (Homo sapiens) (UniProt P29323); settings: Compound concentration 1000.0 nM
[15] = target: Aurora kinase A (Homo sapiens) (UniProt O14965); settings: Compound concentration 1000.0 nM
Sequence of Aurora kinase A (Homo sapiens) (O14965 whole entry, canonical isoform): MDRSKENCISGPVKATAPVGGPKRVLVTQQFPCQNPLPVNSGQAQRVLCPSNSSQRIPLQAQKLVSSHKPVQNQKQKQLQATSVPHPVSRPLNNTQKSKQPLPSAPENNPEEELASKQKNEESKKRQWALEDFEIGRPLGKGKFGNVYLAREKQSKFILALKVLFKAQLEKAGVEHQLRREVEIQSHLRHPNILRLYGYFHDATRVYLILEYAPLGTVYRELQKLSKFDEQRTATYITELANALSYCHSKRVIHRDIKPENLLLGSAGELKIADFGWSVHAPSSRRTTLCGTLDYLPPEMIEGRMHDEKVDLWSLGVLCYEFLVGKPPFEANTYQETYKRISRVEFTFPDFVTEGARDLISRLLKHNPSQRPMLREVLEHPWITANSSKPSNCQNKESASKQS

[16] = target: Casein kinase I isoform gamma-3 (Homo sapiens) (UniProt Q9Y6M4); settings: Compound concentration 1000.0 nM
Sequence of Casein kinase I isoform gamma-3 (Homo sapiens) (Q9Y6M4 whole entry, looked up, canonical isoform): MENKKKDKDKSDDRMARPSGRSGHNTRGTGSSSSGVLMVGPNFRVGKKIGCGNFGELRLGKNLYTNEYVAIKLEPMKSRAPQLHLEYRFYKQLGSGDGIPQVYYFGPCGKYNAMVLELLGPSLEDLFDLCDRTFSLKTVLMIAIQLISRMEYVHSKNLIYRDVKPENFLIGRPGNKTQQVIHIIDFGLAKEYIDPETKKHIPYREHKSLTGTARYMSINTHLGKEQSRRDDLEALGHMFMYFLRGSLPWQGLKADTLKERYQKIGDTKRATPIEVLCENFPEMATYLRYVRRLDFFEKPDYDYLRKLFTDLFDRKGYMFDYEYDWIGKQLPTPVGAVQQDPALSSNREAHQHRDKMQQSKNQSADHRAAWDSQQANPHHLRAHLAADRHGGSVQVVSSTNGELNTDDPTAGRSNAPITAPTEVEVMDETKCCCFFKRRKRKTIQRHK

[17] = target: Protein kinase C epsilon type (Homo sapiens) (UniProt Q02156); settings: Compound concentration 1000.0 nM
Sequence of Protein kinase C epsilon type (Homo sapiens) (Q02156 whole entry): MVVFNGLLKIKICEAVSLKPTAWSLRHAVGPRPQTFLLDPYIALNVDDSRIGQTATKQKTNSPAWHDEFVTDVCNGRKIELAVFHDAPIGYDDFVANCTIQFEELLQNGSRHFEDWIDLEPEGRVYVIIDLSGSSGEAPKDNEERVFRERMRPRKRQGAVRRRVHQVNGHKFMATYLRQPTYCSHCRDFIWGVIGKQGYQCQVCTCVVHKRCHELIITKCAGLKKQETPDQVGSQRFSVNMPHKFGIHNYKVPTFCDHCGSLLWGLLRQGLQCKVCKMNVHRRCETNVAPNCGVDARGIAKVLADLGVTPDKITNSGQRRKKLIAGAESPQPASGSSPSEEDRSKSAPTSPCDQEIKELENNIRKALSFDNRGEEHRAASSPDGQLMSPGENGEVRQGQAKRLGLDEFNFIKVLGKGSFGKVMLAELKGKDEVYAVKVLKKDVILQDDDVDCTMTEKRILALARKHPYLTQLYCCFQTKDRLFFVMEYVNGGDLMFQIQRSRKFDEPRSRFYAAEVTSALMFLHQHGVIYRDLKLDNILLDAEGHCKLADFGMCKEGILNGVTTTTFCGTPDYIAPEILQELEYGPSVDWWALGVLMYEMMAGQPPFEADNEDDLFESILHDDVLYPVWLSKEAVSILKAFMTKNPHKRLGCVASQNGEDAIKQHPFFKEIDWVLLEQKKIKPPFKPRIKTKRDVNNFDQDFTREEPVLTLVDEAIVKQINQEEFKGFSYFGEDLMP

[18] = target: Ephrin type-A receptor 2 (Homo sapiens) (UniProt P29317); settings: Compound concentration 1000.0 nM
[19] = target: Calcium/calmodulin-dependent protein kinase type IV (Homo sapiens) (UniProt Q16566); settings: Compound concentration 1000.0 nM
[20] = target: Muscarinic acetylcholine receptor M4 (Homo sapiens) (UniProt P08173); settings: Compound concentration 10.0 uM
[21] = tested on: Receptor-type tyrosine-protein kinase FLT3 (Homo sapiens), P36888 [UNDEFINED MUTATION]; settings: Compound concentration 1000.0 nM
[22] = target: Ribosomal protein S6 kinase alpha-1 (Homo sapiens) (UniProt Q15418); settings: Compound concentration 1000.0 nM
Sequence of Ribosomal protein S6 kinase alpha-1 (Homo sapiens) (Q15418 whole entry): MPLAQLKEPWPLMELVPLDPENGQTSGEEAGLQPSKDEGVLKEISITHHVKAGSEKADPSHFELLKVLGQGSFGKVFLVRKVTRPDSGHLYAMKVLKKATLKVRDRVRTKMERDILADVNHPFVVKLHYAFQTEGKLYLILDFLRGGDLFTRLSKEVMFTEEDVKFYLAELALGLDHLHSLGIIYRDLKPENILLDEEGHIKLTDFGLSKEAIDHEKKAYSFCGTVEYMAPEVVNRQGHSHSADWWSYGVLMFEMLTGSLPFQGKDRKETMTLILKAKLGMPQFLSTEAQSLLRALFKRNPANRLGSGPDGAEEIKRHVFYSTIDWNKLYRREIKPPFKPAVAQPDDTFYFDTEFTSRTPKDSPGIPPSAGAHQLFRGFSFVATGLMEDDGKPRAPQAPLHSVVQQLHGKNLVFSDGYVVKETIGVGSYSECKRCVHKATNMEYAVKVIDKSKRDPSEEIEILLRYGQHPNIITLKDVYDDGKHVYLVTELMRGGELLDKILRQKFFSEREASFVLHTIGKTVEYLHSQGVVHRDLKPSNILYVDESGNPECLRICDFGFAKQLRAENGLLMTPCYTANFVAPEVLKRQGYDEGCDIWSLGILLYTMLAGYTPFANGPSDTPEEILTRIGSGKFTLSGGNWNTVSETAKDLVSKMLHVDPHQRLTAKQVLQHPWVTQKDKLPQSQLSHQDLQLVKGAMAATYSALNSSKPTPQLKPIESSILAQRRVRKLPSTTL

[23] = target: Dual specificity mitogen-activated protein kinase kinase 5 (Homo sapiens) (UniProt Q13163); settings: Compound concentration 1000.0 nM
[24] = tested on: Receptor-type tyrosine-protein kinase FLT3 (Homo sapiens), P36888 [R834Q]; settings: Compound concentration 1000.0 nM
[25] = target: Tyrosine-protein kinase TXK (Homo sapiens) (UniProt P42681); settings: Compound concentration 1000.0 nM
[26] = target: Bone morphogenetic protein receptor type-1B (Homo sapiens) (UniProt O00238); settings: Compound concentration 1000.0 nM
[27] = tested on: Epidermal growth factor receptor (Homo sapiens), P00533 [T790M]; settings: Compound concentration 1000.0 nM
[28] = tested on: Phosphatidylinositol 4,5-bisphosphate 3-kinase catalytic subunit alpha isoform (Homo sapiens), P42336 [H1047Y]; settings: Compound concentration 1000.0 nM
[29] = target: Dual specificity mitogen-activated protein kinase kinase 3 (Homo sapiens) (UniProt P46734); settings: Compound concentration 1000.0 nM
[30] = target: Serine/threonine-protein kinase SIK2 (Homo sapiens) (UniProt Q9H0K1); settings: Compound concentration 1000.0 nM
Sequence of Serine/threonine-protein kinase SIK2 (Homo sapiens) (Q9H0K1 whole entry, looked up): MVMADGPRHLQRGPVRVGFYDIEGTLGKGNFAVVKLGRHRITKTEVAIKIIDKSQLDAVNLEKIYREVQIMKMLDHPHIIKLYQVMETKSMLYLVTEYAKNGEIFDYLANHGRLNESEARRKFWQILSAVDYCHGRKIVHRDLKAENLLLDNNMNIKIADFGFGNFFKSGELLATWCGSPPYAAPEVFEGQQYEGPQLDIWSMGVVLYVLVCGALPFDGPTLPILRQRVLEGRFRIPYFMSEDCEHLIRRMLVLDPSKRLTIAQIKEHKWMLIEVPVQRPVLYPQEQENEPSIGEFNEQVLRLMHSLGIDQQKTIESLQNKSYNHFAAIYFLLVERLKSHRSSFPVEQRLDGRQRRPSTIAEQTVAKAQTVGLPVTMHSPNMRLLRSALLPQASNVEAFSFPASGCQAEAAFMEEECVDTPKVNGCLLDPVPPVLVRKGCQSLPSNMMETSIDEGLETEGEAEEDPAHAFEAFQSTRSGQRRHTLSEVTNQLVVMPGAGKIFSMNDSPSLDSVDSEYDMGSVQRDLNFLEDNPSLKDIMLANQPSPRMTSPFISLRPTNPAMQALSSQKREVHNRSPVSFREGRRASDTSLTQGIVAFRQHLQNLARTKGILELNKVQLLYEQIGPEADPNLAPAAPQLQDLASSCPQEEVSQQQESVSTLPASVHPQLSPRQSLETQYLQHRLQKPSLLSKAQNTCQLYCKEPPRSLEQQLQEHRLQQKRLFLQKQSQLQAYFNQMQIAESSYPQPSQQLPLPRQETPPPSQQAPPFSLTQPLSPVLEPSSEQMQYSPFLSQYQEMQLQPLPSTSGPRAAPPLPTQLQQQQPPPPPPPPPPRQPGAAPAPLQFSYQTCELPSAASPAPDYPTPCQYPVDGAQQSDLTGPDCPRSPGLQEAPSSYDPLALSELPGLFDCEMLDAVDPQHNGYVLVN

[31] = target: Testis-specific serine/threonine-protein kinase 1 (Homo sapiens) (UniProt Q9BXA7); settings: Compound concentration 1000.0 nM
Sequence of Testis-specific serine/threonine-protein kinase 1 (Homo sapiens) (Q9BXA7 whole entry): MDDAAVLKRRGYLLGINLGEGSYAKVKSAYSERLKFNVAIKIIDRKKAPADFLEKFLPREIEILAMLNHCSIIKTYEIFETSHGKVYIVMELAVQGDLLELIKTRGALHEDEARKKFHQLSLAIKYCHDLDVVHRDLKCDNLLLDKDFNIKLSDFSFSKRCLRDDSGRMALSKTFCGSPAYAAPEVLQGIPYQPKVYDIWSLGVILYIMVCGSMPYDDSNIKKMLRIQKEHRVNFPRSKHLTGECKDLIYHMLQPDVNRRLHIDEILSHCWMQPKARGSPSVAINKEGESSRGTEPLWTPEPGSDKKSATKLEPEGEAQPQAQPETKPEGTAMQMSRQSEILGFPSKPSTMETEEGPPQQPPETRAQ

[32] = target: Interleukin-1 receptor-associated kinase 1 (Homo sapiens) (UniProt P51617); settings: Compound concentration 1000.0 nM
[33] = tested on: Tyrosine-protein kinase ABL1 (Homo sapiens), P00519 [Y253F]; settings: Compound concentration 1000.0 nM
[34] = target: Tyrosine-protein kinase ZAP-70 (Homo sapiens) (UniProt P43403); settings: Compound concentration 1000.0 nM
[35] = target: Mitogen-activated protein kinase kinase kinase 1 (Homo sapiens) (UniProt Q13233); settings: Compound concentration 1000.0 nM
[36] = target: Tyrosine-protein kinase Fyn (Homo sapiens) (UniProt P06241); settings: Compound concentration 1000.0 nM
[37] = target: Non-receptor tyrosine-protein kinase TYK2 (Homo sapiens) (UniProt P29597); settings: Compound concentration 1000.0 nM
[38] = tested on: Leucine-rich repeat serine/threonine-protein kinase 2 (Homo sapiens), Q5S007 [G2019S]; settings: Compound concentration 1000.0 nM
[39] = target: Serine/threonine-protein kinase TAO1 (Homo sapiens) (UniProt Q7L7X3); settings: Compound concentration 1000.0 nM

Sequence of Tyrosine-protein kinase ITK/TSK (Homo sapiens) (Q08881 whole entry): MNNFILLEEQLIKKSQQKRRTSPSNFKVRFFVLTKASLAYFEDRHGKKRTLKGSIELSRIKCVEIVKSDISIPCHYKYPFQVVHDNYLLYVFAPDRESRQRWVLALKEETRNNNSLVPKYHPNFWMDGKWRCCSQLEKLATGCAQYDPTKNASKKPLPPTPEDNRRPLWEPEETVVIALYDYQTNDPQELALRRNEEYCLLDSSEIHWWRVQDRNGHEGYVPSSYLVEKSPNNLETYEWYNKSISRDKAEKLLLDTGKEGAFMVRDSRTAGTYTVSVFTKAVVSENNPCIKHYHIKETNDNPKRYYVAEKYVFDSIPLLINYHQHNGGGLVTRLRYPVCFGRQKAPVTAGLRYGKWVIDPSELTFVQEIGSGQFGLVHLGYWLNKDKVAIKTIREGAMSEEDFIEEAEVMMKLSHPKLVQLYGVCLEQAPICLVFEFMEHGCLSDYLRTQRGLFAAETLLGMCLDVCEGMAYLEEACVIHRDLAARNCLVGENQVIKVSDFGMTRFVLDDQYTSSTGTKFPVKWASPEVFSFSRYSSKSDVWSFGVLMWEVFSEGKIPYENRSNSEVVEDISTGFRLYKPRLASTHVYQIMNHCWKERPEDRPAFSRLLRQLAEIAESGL

O=C(O)[C@@H]1[C@@H](Cn2nnc3ccccc3c2=O)CC[C@H]1C(=O)c1ccc(OCCC2CCOCC2)cc1 [BAY-694]
inactive: residual activity [1] 100% | residual activity [2] 100% | residual activity [3] 87% | residual activity [4] 100% | residual activity [5] 100% | residual activity [6] 89% | inhibition [7] 18.4% | residual activity [8] 92% | residual activity [9] 100% | residual activity [10] 88% | residual activity [11] 100% | inhibition [12] 7.62% | residual activity [13] 99% | residual activity [14] 100% | residual activity [15] 100% | residual activity [16] 100% | residual activity [17] 100% | residual activity [18] 100% | residual activity [19] 75% | inhibition [20] -7.11% | residual activity [21] 100% | residual activity [22] 92% | residual activity [23] 73% | residual activity [24] 100% | residual activity [25] 94% | residual activity [26] 78% | residual activity [27] 94% | residual activity [28] 94% | residual activity [29] 92% | residual activity [30] 91% | residual activity [31] 100% | residual activity [32] 82% | residual activity [33] 100% | residual activity [34] 99% | residual activity [35] 100% | residual activity [36] 76% | residual activity [37] 100% | residual activity [38] 100% | residual activity [39] 100%

O=C(O)[C@H]1[C@H](Cn2nnc3ccccc3c2=O)CC[C@@H]1C(=O)c1ccc(OCCC2CCOCC2)cc1 [BAY-7598]
inactive: residual activity [1] 100% | residual activity [2] 100% | residual activity [3] 100% | residual activity [4] 91% | residual activity [5] 95% | residual activity [6] 100% | inhibition [7] 16.2% | residual activity [8] 93% | residual activity [9] 100% | residual activity [10] 100% | residual activity [11] 100% | inhibition [12] -0.18% | residual activity [13] 78% | residual activity [14] 100% | residual activity [15] 97% | residual activity [16] 100% | residual activity [17] 100% | residual activity [18] 93% | residual activity [19] 78% | inhibition [20] -5.24% | residual activity [21] 83% | residual activity [22] 95% | residual activity [23] 100% | residual activity [24] 96% | residual activity [25] 100% | residual activity [26] 95% | residual activity [27] 77% | residual activity [28] 88% | residual activity [29] 90% | residual activity [30] 100% | residual activity [31] 73% | residual activity [32] 70% | residual activity [33] 100% | residual activity [34] 100% | residual activity [35] 100% | residual activity [36] 100% | residual activity [37] 100% | residual activity [38] 100% | residual activity [39] 100%
